{
  "source": "patent US20240124556A1",
  "about": "“KERATIN BD-3, PREPARATION METHOD THEREFOR AND PHARMACEUTICAL COMPOSITION AND USE THEREOF” (INSTITUTE OF MATERIA MEDICA, CHINESE ACADEMY OF MEDICAL …, priority 2019, published 2024)",
  "tested_on": "phenol red excretion in mice",
  "experiment": "Expectorant test, phenol red excretion method in mice",
  "assay_type": "in vivo, ICR mice",
  "procedure": "• Animals: male ICR mice; • Drugs and reagents: Mucosolvan (ambroxol hydrochloride tablets), phenol red, sodium bicarbonate, protein BD-3; • Instruments: centrifuge (Sigma-3K15 type), balance (XS105DU type), Microplate tester (BIO-TEK type). • Experiment Grouping: • Solvent control group; • Mucosolvan 30 mg/kg group; • Protein BD-3, 20 mg/kg group, 50 mg/kg group.\nThe animals were fasted and water was taken freely 16 hours before the experiment. Orally administered Mucosolvan and different doses of protein BD-3 (administration volume 10 ml/kg) in groups, and the solvent control group was given the same volume of distilled water. One hour later, 2.5% phenol red solution was injected intraperitoneally. Mice were sacrificed by neck dislocation after 30 minutes. […] Measure and record the absorbance at 546 nm. According to the standard curve of phenol red, the excretion of phenol red was calculated.\nRecord the time point of oral administration, the time point of intraperitoneal injection of 2.5% phenol red solution, and the time point of taking the trachea respectively; The absorbance of each group of samples was measured by the microplate reader at 546 nm, Calculate the excretion of phenol red according to the standard curve of phenol red. […]",
  "note": "Structures can show the parent of a compound that is named as a salt.",
  "data": [
    {"smiles": "Nc1c(Br)cc(Br)cc1CN[C@H]1CC[C@H](O)CC1", "note": "[Mucosolvan, ambroxol hydrochloride, reference compound]", "values": [
      {"measurement": "Phenol red excretion", "setting": "Mucosolvan 30 mg/kg oral, X ± SEM, solvent control 0.506 ± 0.040", "value": "1.061 ± 0.117", "unit": "µg/mL"},
      {"measurement": "Amount of phenol red excretion vs solvent control (in words)", "setting": "Mucosolvan 30 mg/kg, P<0.05", "value": "significantly increased"}
    ]}
  ]
}
